In patent US4562191A (priority 1983, dated 1985):
Several values for one entry are separate records, joined by “and”; a condition that tells them apart may be missing. Identical values can stand only once.

Tested on: Male CD-1 albino mice
Parameters: species or system mouse (CD-1 albino)
Conditions: mouse, in vivo

Row | SMILES | Mean number of contortions ± S.D. | No. of animals exhibiting contortions out of total
1 | CC(=O)Oc1ccccc1C(=O)O [Acetyl-salicylic acid, acetylsalicylic acid] | 13.5 ± 11.1 | 4/6
2 | CCC(=O)O[C@](Cc1ccccc1)(c1ccccc1)[C@H](C)CN(C)C [D-propoxyphene] | 2.5 ± 2.1 | 2/6
3 | CCCCC1C(=O)N(c2ccccc2)N(c2ccccc2)C1=O [Phenylbutazone] |  | 3/6 and 5/6
